Measured values reported in patent publication US10774064B2 (Cadent Therapeutics, Inc., priority 2016, dated 2020).

Target: T1, small-conductance Ca2+-activated K+ channels (SK channels, subtype 2) (Homo sapiens, UniProt Q9H2S1)
T1 construct: expressed in transfected cells; host or cells: HEK293
Assay: whole-cell patch-clamp of ionic current through SK2 channels in HEK293 cells (SC100)
Assay type: cell-based
Details: concentration that increases the basal current by 100%; HEK293 cells expressing SK2 channels
Method in brief: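 Whole-cell patch-clamp recording of current in HEK293 cells expressing SK2 channels. SC100 is the compound concentration that increases basal current by 100%.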

SC100	Structure (SMILES)
+ (+ means >1 uM)	Cc1cc(NC2CCC(F)(F)CC2)nc(-c2nc(C3CC3)cs2)n1 [Compound 267, 2-(4-cyclopropylthiazol-2-yl)-N-(4,4-difluorocyclohexyl)-6-methylpyrimidin-4-amine]
++ (++ means 200 nM-1000 nM)	Cc1cc(C)n(-c2cc(OCc3cnnn3C)cc(NC3CCC(F)(F)CC3)n2)n1 [Compound 268, N-(4,4-difluorocyclohexyl)-6-(3,5-dimethyl-1H-pyrazol-1-yl)-4-((1-methyl-1H-1,2,3-triazol-5-yl)methoxy)pyridin-2-amine]
+ (+ means >1 uM)	Cc1cc(NC2CCC(F)(F)CC2)nc(-c2nc(C(F)(F)F)cs2)n1 [Compound 269, N-(4,4-difluorocyclohexyl)-6-methyl-2-(4-(trifluoromethyl)thiazol-2-yl)pyrimidin-4-amine]
+ (+ means >1 uM)	Cc1cc(NC2CCC(F)(F)CC2)nc(-c2nc(CO)cs2)n1 [Compound 270, (2-(4-((4,4-difluorocyclohexyl)amino)-6-methylpyrimidin-2-yl)thiazol-4-yl)methanol]
++ (++ means 200 nM-1000 nM)	Cc1cc(C)n(-c2cc(OCc3ncnn3C)cc(NC3CCC(F)(F)CC3)n2)n1 [Compound 271, N-(4,4-difluorocyclohexyl)-6-(3,5-dimethyl-1H-pyrazol-1-yl)-4-((1-methyl-1H-1,2,4-triazol-5-yl)methoxy)pyridin-2-amine]
+ (+ means >1 uM)	Cc1cc(C)n(-c2nc(NC3CCC(F)(F)CC3)cc(OCc3ncn(C)n3)n2)n1 [Compound 272]
++ (++ means 200 nM-1000 nM)	Cc1cc(NC2CCC(F)(F)CC2)nc(-c2nc(CF)cs2)n1 [Compound 273, N-(4,4-difluorocyclohexyl)-2-(4-(fluoromethyl)thiazol-2-yl)-6-methylpyrimidin-4-amine]
+ (+ means >1 uM)	Cc1cc(C)n(-c2nc(NC3CCC(F)(F)CC3)cc(OCc3ncnn3C)n2)n1 [Compound 274, N-(4,4-difluorocyclohexyl)-2-(3,5-dimethyl-1H-pyrazol-1-yl)-6-((1-methyl-1H-1,2,4-triazol-5-yl)methoxy)pyrimidin-4-amine]
+ (+ means >1 uM)	Cc1cc(C)n(-c2cc(OCc3ncn(C)n3)cc(NC3CCC(F)(F)CC3)n2)n1 [Compound 275, N-(4,4-difluorocyclohexyl)-6-(3,5-dimethyl-1h-pyrazol-1-yl)-4-((1-methyl-1H-1,2,4-triazol-3-yl)methoxy)pyridin-2-amine]
+ (+ means >1 uM)	Cc1cc(C)n(-c2cc(O)cc(NC3CCC(F)(F)CC3)n2)n1 [Compound 276, 2-((4,4-difluorocyclohexyl)amino)-6-(3,5-dimethyl-1H-pyrazol-1-yl)pyridin-4-ol]
++ (++ means 200 nM-1000 nM)	Cc1cc(NC2CCC(F)(F)CC2)nc(-c2nc(C(F)F)cs2)n1 [Compound 277, N-(4,4-difluorocyclohexyl)-2-(4-(difluoromethyl)thiazol-2-yl)-6-methylpyrimidin-4-amine]
++ (++ means 200 nM-1000 nM)	Cc1cc(NC2CCC(F)(F)CC2)nc(-c2nc(C(C)C)cs2)n1 [Compound 278, N-(4,4-difluorocyclohexyl)-2-(4-isopropylthiazol-2-yl)-6-methylpyrimidin-4-amine]
++ (++ means 200 nM-1000 nM)	CCc1csc(-c2nc(C)cc(NC3CCC(F)(F)CC3)n2)n1 [Compound 279, N-(4,4-difluorocyclohexyl)-2-(4-ethylthiazol-2-yl)-6-methylpyrimidin-4-amine]
+ (+ means >1 uM)	FCc1ccn(-c2nc(NC3CCC(F)(F)CC3)cc(N3CCOCC3)n2)n1 [Compound 280, N-(4,4-difluorocyclohexyl)-2-(3-(fluoromethyl)-1H-pyrazol-1-yl)-6-morpholinopyrimidin-4-amine]
++ (++ means 200 nM-1000 nM)	Cc1cn(-c2nc(NC3CCC(F)(F)CC3)cc(N3CCOCC3)n2)nc1CF [Compound 281, N-(4,4-difluorocyclohexyl)-2-(3-(fluoromethyl)-4-methyl-1H-pyrazol-1-yl)-6-morpholinopyrimidin-4-amine]
+ (+ means >1 uM)	Cc1cn(-c2nc(NC3CCC(F)(F)CC3)cc(N3CCOCC3)n2)nc1C(F)F [Compound 282, N-(4,4-difluorocyclohexyl)-2-(3-(difluoromethyl)-4-methyl-1H-pyrazol-1-yl)-6-morpholinopyrimidin-4-amine]
++ (++ means 200 nM-1000 nM)	FCc1ccn(-c2nc(NC3CCC(F)(F)CC3)cc(N3CCSCC3)n2)n1 [Compound 284, N-(4,4-difluorocyclohexyl)-2-(3-(fluoromethyl)-1H-pyrazol-1-yl)-6-thiomorpholinopyrimidin-4-amine]

SC100	Structure (SMILES)
+ (+ means >1 uM)	FCc1ccn(-c2nc(NC3CCC(F)(F)CC3)cc(OC3COC3)n2)n1 [Compound 285, N-(4,4-difluorocyclohexyl)-2-(3-(fluoromethyl)-1H-pyrazol-1-yl)-6-(oxetan-3-yloxy)pyrimidin-4-amine]
+++ (+++ means <200 nM)	Cn1cnc2c(NC3CCC(F)(F)CC3)nc(-n3ccc(CF)n3)cc21 [Compound 286, N-(4,4-difluorocyclohexyl)-6-(3-(fluoromethyl)-1H-pyrazol-1-yl)-1-methyl-1H-imidazo[4,5-c]pyridin-4-amine]
++ (++ means 200 nM-1000 nM)	CCOC(=O)N1CC(Oc2cc(NC3CCC(F)(F)CC3)nc(-n3ccc(CF)n3)n2)C1 [Compound 287, ethyl 3-((6-((4,4-difluorocyclohexyl)amino)-2-(3-(fluoromethyl)-1H-pyrazol-1-yl)pyrimidin-4-yl)oxy)azetidine-1-carboxylate]
++ (++ means 200 nM-1000 nM)	CCC(=O)N1CC(Oc2cc(NC3CCC(F)(F)CC3)nc(-n3ccc(CF)n3)n2)C1 [Compound 288, 1-(3-((6-((4,4-difluorocyclohexyl)amino)-2-(3-(fluoromethyl)-1H-pyrazol-1-yl)pyrimidin-4-yl)oxy)azetidin-1-yl)propan-1-one]
++ (++ means 200 nM-1000 nM)	CC(=O)N1CC(Oc2cc(NC3CCC(F)(F)CC3)nc(-n3ccc(CF)n3)n2)C1 [Compound 289, 1-(3-((6-((4,4-difluorocyclohexyl)amino)-2-(3-(fluoromethyl)-1H-pyrazol-1-yl)pyrimidin-4-yl)oxy)azetidin-1-yl)ethan-1-one]
++ (++ means 200 nM-1000 nM)	CC(C)C(=O)N1CC(Oc2cc(NC3CCC(F)(F)CC3)nc(-n3ccc(CF)n3)n2)C1 [Compound 290, 1-(3-((6-((4,4-difluorocyclohexyl)amino)-2-(3-(fluoromethyl)-1H-pyrazol-1-yl)pyrimidin-4-yl)oxy)azetidin-1-yl)-2-methylpropan-1-one]
++ (++ means 200 nM-1000 nM)	COC(=O)N1CC(Oc2cc(NC3CCC(F)(F)CC3)nc(-n3ccc(CF)n3)n2)C1 [Compound 291, methyl 3-((6-((4,4-difluorocyclohexyl)amino)-2-(3-(fluoromethyl)-1H-pyrazol-1-yl)pyrimidin-4-yl)oxy)azetidine-1-carboxylate]
++ (++ means 200 nM-1000 nM)	CC(C)(C)C(=O)N1CC(Oc2cc(NC3CCC(F)(F)CC3)nc(-n3ccc(CF)n3)n2)C1 [Compound 293, 1-(3-((6-((4,4-difluorocyclohexyl)amino)-2-(3-(fluoromethyl)-1H-pyrazol-1-yl)pyrimidin-4-yl)oxy)azetidin-1-yl)-2,2-dimethylpropan-1-one]
++ (++ means 200 nM-1000 nM)	CC1CN(c2cc(NC3CCC(F)(F)CC3)nc(-n3ccc(CF)n3)n2)CC(C)O1 (stereo not drawn) [Compound 294, N-(4,4-difluorocyclohexyl)-6-(2,6-dimethylmorpholino)-2-(3-(fluoromethyl)-1H-pyrazol-1-yl)pyrimidin-4-amine]
++ (++ means 200 nM-1000 nM)	COC(=O)N1CC(Oc2cc(NC3CCC(F)(F)CC3)nc(-n3ccc(C(F)F)n3)n2)C1 [Compound 295, methyl 3-((6-((4,4-difluorocyclohexyl)amino)-2-(3-(difluoromethyl)-1H-pyrazol-1-yl)pyrimidin-4-yl)oxy)azetidine-1-carboxylate]
++ (++ means 200 nM-1000 nM)	CC(C)OC(=O)N1CC(Oc2cc(NC3CCC(F)(F)CC3)nc(-n3ccc(CF)n3)n2)C1 [Compound 296, isopropyl3-((6-((4,4-difluorocyclohexyl)amino)-2-(3-(fluoromethyl)-1H-pyrazol-1-yl)pyrimidin-4-yl)oxy)azetidine-1-carboxylate]
++ (++ means 200 nM-1000 nM)	COC(=O)N1CCC(Oc2cc(NC3CCC(F)(F)CC3)nc(-n3ccc(CF)n3)n2)C1 (stereo not drawn) [Compound 297, methyl 3-((6-((4,4-difluorocyclohexyl)amino)-2-(3-(fluoromethyl)-1H-pyrazol-1-yl)pyrimidin-4-yl)oxy)pyrrolidine-1-carboxylate]
++ (++ means 200 nM-1000 nM)	CC(C)(C)C(=O)N1CC(Oc2cc(NC3CCC(F)(F)CC3)nc(-n3ccc(C(F)F)n3)n2)C1 [Compound 298, 1-(3-((6-((4,4-difluorocyclohexyl)amino)-2-(3-(difluoromethyl)-1H-pyrazol-1-yl)pyrimidin-4-yl)oxy)azetidin-1-yl)-2,2-dimethylpropan-1-one]
++ (++ means 200 nM-1000 nM)	O=C(N1CC(Oc2cc(NC3CCC(F)(F)CC3)nc(-n3ccc(C(F)F)n3)n2)C1)C(F)(F)F [Compound 299, 1-(3-((6-((4,4-difluorocyclohexyl)amino)-2-(3-(difluoromethyl)-1H-pyrazol-1-yl)pyrimidin-4-yl)oxy)azetidin-1-yl)-2,2,2-trifluoroethan-1-one]
+ (+ means >1 uM)	Cc1cc(C)n(Cc2cc(NC3CCC(F)(F)CC3)nc(-n3ccc(CF)n3)n2)n1 [Compound 300, N-(4,4-difluorocyclohexyl)-6-((3,5-dimethyl-1H-pyrazol-1-yl)methyl)-2-(3-(fluoromethyl)-1H-pyrazol-1-yl)pyrimidin-4-amine]
++ (++ means 200 nM-1000 nM)	CC(=O)NCc1cc(NC2CCC(F)(F)CC2)nc(-n2ccc(C(F)F)n2)c1 [Compound 301, N-((2-((4,4-difluorocyclohexyl)amino)-6-(3-(difluoromethyl)-1H-pyrazol-1-yl)pyridin-4-yl)methyl)acetamide]
